In patent publication US7795226B2, “Control of radiation injury” (Biotempt B.V., priority 2006, dated 2010):
Several values for one entry are separate records, joined by “and”; a condition that tells them apart may be missing. Equal values may be shown once.

How the values were obtained:
Format in all cases: in vivo
[1] = tested on: high dose LPS (E. coli 026:B6)-induced septic shock in BALB/c mice; experiment: high dose LPS-induced septic shock, peptide administered twice; conditions: peptide twice (t = 2 and 24 hours) 5 mg/kg
Method in brief: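 Female BALB/c mice (8–12 weeks) given high-dose LPS (E. coli 026:B6) i.p., predetermined to cause 80–100% mortality in 24–72 h. Peptides in PBS at 5 mg/kg i.p. at 2 and 24 h after LPS; sickness scored 0–5 or dead.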

[2] = tested on: renal ischemia reperfusion in mice; experiment: mouse renal ischemia reperfusion test; set-up: BUN after 25 minutes renal ischemia, mean / Urea levels in dose-response experiment: unit not given here; conditions: for BUN after 25 minutes renal ischemia, mean / BUN concentration versus PBS (in words) / BUN concentration versus the PBS control group (in words) / mortality versus the PBS control group (in words): 5 mg/kg i.v.; for mortality at 72 hours post-reperfusion: 5 mg/kg i.v. before and after 25 minutes clamping, dead/total
Method: Six oligopeptides (i.e., A: LAGV (SEQ ID NO:121); B: AQGV (SEQ ID NO:120); C: LAG; D: AQG; E: MTR; and F: MTRV (SEO ID NO:119)) were tested and compared with PBS (control) in a double blind animal study for each peptide's relative ability to aid recovery in a mouse renal ischemia reperfusion test. In this test, the mice were anesthetized, and one kidney from each mouse was removed. The other kidney was tied off for 25 minutes, and the serum urea levels were allowed to increase. Both before and after tying off, each of the separate peptides was administered to thirty (30) different mice (5 mg oligopeptide / kg body mass intravenously), after which, the mortality of the mice was determined for each oligopeptide as well as was the BUN concentration at two hours, 24 hours and 72 hours. The results are shown in Table 3 below (excluding the results of peptide A (LAGV (SEQ ID NO:121)) obtained in Example 3).
Under inhalation anesthesia, the left kidney with its artery and vein was isolated and occluded for 25 minutes using a microvascular clamp. During surgery, animals were placed on a heating pad to maintain body temperature at 37° C. Five minutes before placing the clamp, and five minutes before releasing the clamp, 5 mg/kg of peptide dissolved in 0.1 mL of sterile saline, was administered intravenously. After reperfusion of the left kidney, the right kidney was removed. Kidney function was assessed by measuring blood urea nitrogen before clamping, and at 2, 24, and 72 hours after reperfusion.
Peptides were tested at 0.3, 1, 3, 10 and 30 mg/kg dosages given as described in Example 3. P values (calculated by Mann Whitney U-test (SPSS for Windows)) of serum urea levels of PBS compared to peptide D groups at 72 hours post-clamping were at 0.3 mg/kg 0.001, at 1 mg/kg 0.009, at 3 mg/kg 0.02, at 10 mg/kg 0.000, and at 30 mg/kg 0.23; for peptide B (SEQ ID NO:120) groups, these P-values were 0.88, 0.054, 0.000, 0.001 and 0.003.

[3] = tested on: LPS (E. coli 026:B6)-induced sepsis in BALB/c mice; experiment: endotoxin shock survival after early or late treatment with peptide
Method: Mice used in sepsis or septic shock experiments: Female BALB/c mice of eight to twelve weeks of age were used for all experiments. The animals were bred in our facility under specific pathogen-free conditions according to the protocols described in the […] of European Laboratory Animal Science Associations (FELASA) Working group on Animal Health (Laboratory Animals 28:1-24, 1994).
Injection protocols: For the endotoxin model, BALB/c mice were injected i.p. with 150-300 μg LPS (E. coli 026:B6; Difco Lab., Detroit, Mich., USA). Control groups were treated with PBS i.p. only. To test the effect of peptides, they were dissolved in PBS and injected i.p. at predetermined points in time after LPS treatment.
A further set of septic shock experiments were set up to determine which of the peptides LQG, LQGV (SEQ ID NO:117), VLPALP (SEQ ID NO:140), VLPALPQ (SEQ ID NO:143), MTR, MTRV (SEQ ID NO:119), VVC or AQGV (SEQ ID NO:120) under study were most suited to be used early and/or late after or throughout the development of shock. For determining the percent of endotoxin shock survival after late or early treatment with peptide, BALB/c mice were injected i.p. with 300 μg LPS (E. coli 026:B6; Difco Lab., Detroit, Mich. USA), predetermined to be leading to 100% mortality in 48 hours without peptide treatment.
To evaluate the effect of peptide treatment at an early or late point in time of development of shock, mice were treated at two hours or at 24 hours after LPS injection by i.p. injection with test peptide at 5 mg/kg bodyweight. The mice were followed for 84 hours instead of for 48 hours in the earlier experiments.

[4] = 0 hours, peptide 5 mg/kg 2 hours after LPS
[5] = 0 hours, peptide 5 mg/kg 24 hours after LPS
[6] = 14 hours, peptide 5 mg/kg 2 hours after LPS
[7] = 14 hours, peptide 5 mg/kg 24 hours after LPS
[8] = 24 hours, peptide 5 mg/kg 2 hours after LPS
[9] = 24 hours, peptide 5 mg/kg 24 hours after LPS
[10] = 48 hours, peptide 5 mg/kg 2 hours after LPS
[11] = 48 hours, peptide 5 mg/kg 24 hours after LPS
[12] = 84 hours, peptide 5 mg/kg 2 hours after LPS
[13] = 84 hours, peptide 5 mg/kg 24 hours after LPS

Substance	mice scored D (dead), effect at t = 48 hours ([1]; LPS dose 10.5)	mice with sickness score 5, effect at t = 24 hours ([1]; LPS dose 10.5)	mice scored D (dead), effect at t = 48 hours ([1]; LPS dose 11)	mice with sickness score 4, effect at t = 24 hours ([1]; LPS dose 11)	BUN after 25 minutes renal ischemia, mean ([2]; 2 hours after reperfusion)	BUN after 25 minutes renal ischemia, mean ([2]; 24 hours after reperfusion)	BUN after 25 minutes renal ischemia, mean ([2]; 72 hours after reperfusion)	BUN after 25 minutes renal ischemia, mean ([2]; t = 0 hr (before clamping))	% Survival [3, 4] [%]	% Survival [3, 5] [%]	% Survival [3, 6] [%]	% Survival [3, 7] [%]	% Survival [3, 8] [%]	% Survival [3, 9] [%]	% Survival [3, 10] [%]	% Survival [3, 11] [%]	% Survival [3, 12] [%]	% Survival [3, 13] [%]	mice with sickness score 1, effect at t = 48 hours ([1]; LPS dose 10.5)	mice with sickness score 2, effect at t = 24 hours ([1]; LPS dose 10.5)	other results
LQG	5	5	6	6	16.75	26.74	83.96	7.821	100	100	100	100	100	100	0	0	0	0	–	–	BUN concentration versus PBS (in words) ([2]; at 24 hours post-reperfusion): reduced BUN concentration
MTR	–	–	–	–	17.13	66.23	104.0167	8.404	100	100	100	100	100	100	100	100	50	100	5	1	mice with sickness score 1, effect at t = 24 hours ([1]; LPS dose 10.5): 4; mice with sickness score 1, effect at t = 24 hours ([1]; LPS dose 11): 6; mice with sickness score 1, effect at t = 48 hours ([1]; LPS dose 11): 6; BUN concentration versus the PBS control group (in words) [2]: no reducing effect on BUN concentration; mortality versus the PBS control group (in words) [2]: significant reduction of mortality; mortality at 72 hours post-reperfusion [2]: 4/10; BUN concentration versus PBS (in words) ([2]; at 72 hours post-reperfusion): significantly raise BUN levels
LQGV	5	5	4	2	17.53	56.08	73.18	7.518	100	100	100	100	100	100	100	0	100	0	–	–	mice with sickness score 4, effect at t = 48 hours ([1]; LPS dose 11): 2; mice with sickness score 5, effect at t = 24 hours ([1]; LPS dose 11): 4
MTRV	–	–	–	2	15.09	34.57	39.8375	7.463	100	100	100	100	100	100	50	100	30	100	2	1	mice with sickness score 2, effect at t = 48 hours ([1]; LPS dose 10.5): 3; mice with sickness score 3, effect at t = 24 hours ([1]; LPS dose 10.5): 1; mice with sickness score 4, effect at t = 24 hours ([1]; LPS dose 10.5): 3; mice with sickness score 1, effect at t = 48 hours ([1]; LPS dose 11): 6; mice with sickness score 2, effect at t = 24 hours ([1]; LPS dose 11): 4; BUN concentration versus the PBS control group (in words) [2]: reduced BUN concentration; mortality versus the PBS control group (in words) [2]: significant reduction in mortality; mortality at 72 hours post-reperfusion [2]: 2/10
VLPALPQ (septamer peptide)	2	2	2	–	13.58	37.79	37.6375	8.257	100	100	100	100	100	100	0	100	0	100	–	1	mice with sickness score 2, effect at t = 48 hours ([1]; LPS dose 10.5): 3; mice with sickness score 3, effect at t = 24 hours ([1]; LPS dose 10.5): 2; mice with sickness score 4, effect at t = 48 hours ([1]; LPS dose 11): 3; mice with sickness score 5, effect at t = 24 hours ([1]; LPS dose 11): 6; mice with sickness score 5, effect at t = 48 hours ([1]; LPS dose 11): 1; mice with sickness score 2, effect at t = 48 hours ([1]; LPS dose 11, 5 mg/kg): 4 and 2; BUN concentration versus PBS (in words) ([2]; at 72 hours post-reperfusion): did much better in terms of reduced BUN concentration
